Common to all, as to assay: NCI anticancer screen, dose series, 48 h
Assay [1] has as its system OVCAR-5.
The test system of assay [2] is U-251.
Assay [3] has as its system HCT-116.
For assay [4], the system named is SK-MEL-5.
Assay [5] deals with KM12.
The subject of assay [6] is HCT-15.
Assay [7] relates to UO-31.
The test system of assay [8] is OVCAR-8.
Assay [9] has as its system RPMI-8226.
Assay [10] has as its system Malme-3M.
For assay [11], the system named is HT-29.
For assay [12], the system named is K562.
For assay [13], the system named is UACC-62.
Assay [14] relates to NCI-H226.
In assay [15] the test system is COLO 205.
For assay [16], the system named is SF-268.
In assay [17] the test system is A549.
In assay [18] the test system is HCC 2998.
Assay [19] concerns HOP-92.
Assay [20] has as its system OVCAR-3.

Structures are written as SMILES.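 Interpolation was linear, between the two tested concentrations surrounding the appropriate level; five concentrations were tested over 48 hours in 96-well plates. Abbreviation: GI50, concentration required for 50% inhibition of growth.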 Activity calls are given as the source filed them. Rule as the data show it: active = GI50 up to about 1.1 µM and inactive = higher.

On to `Nc1ccc(N(S(=O)(=O)c2ccccc2)S(=O)(=O)c2ccccc2)c(Cl)c1`, for which the GI50 was > 100 µM (inactive) in [1]; 39.3 µM (inactive) in [2]; 55.2 µM (inactive) in [3]; 20.1 µM (inactive) in [4]; 24.2 µM (inactive) in assay [5]; 55.7 µM in [6]. In addition, the GI50 was > 100 µM (inactive) in [7]; 70.8 µM (inactive) in assay [8]; 28.7 µM (inactive) in assay [9]; 42.5 µM (inactive) in [10]; 37.8 µM (inactive) in assay [11]; 2.98 µM (inactive) in [12]. For the same molecule, the GI50 was 24.8 µM (inactive) in [13]; 73.5 µM (inactive) in [14]; 21 µM (inactive) in assay [15]; 69.2 µM (inactive) in [16]; 50.5 µM (inactive) in [17]; 18.5 µM (inactive) in assay [18]. The GI50 in assay [19] is 70.3 µM (inactive).
`C=CCOCCC(CC=C)C(=O)CC(=O)OC` (stereo not drawn): the GI50 was > 100 µM (inactive) in assay [1]; > 100 µM (inactive) in assay [2]; 45.6 µM (inactive) in assay [3]; > 100 µM (inactive) in assay [4]; > 100 µM (inactive) in assay [5]; over 100 µM in [6]. Also, the GI50 in assay [7] is > 100 µM (inactive); in assay [8] it was > 100 µM (inactive); in [9], 25.3 µM (inactive); in assay [10], > 100 µM (inactive); in assay [20] it was > 100 µM (inactive); in assay [11], > 100 µM (inactive). Further, the GI50 is 19.3 µM (inactive) in [12]; 52.8 µM (inactive) in assay [13]; > 100 µM (inactive) in assay [14]; > 100 µM (inactive) in assay [16]; > 100 µM (inactive) in assay [17]; > 100 µM (inactive) in assay [18]. Further, the GI50 in assay [19] is 90.4 µM (inactive).
For the molecule `c1ccc2c(c1)NCc1cc3ccccc3nc1O2`, the GI50 in assay [1] is > 100 µM (inactive); in assay [3], > 100 µM (inactive); in [4] it was > 100 µM (inactive); in [5], > 100 µM (inactive); in assay [6] it was over 100 µM; in assay [7], 26.9 µM (inactive). Moreover, the GI50 is > 100 µM (inactive) in assay [8]; > 100 µM (inactive) in [9]; > 100 µM (inactive) in assay [10]; > 100 µM (inactive) in assay [20]; 71.6 µM (inactive) in assay [11]; > 100 µM (inactive) in assay [12]. For the same molecule, the GI50 in [13] is > 100 µM (inactive); in assay [14] it was > 40.7 µM (inactive); in assay [15], > 100 µM (inactive); in assay [16], > 100 µM (inactive); in assay [17], > 100 µM (inactive); in assay [18] it was > 100 µM (inactive). Also, in [19], the GI50 is > 100 µM (inactive).
For `CSc1nc(NC2OC(COC(C)=O)C(OC(C)=O)C(OC(C)=O)C2OC(C)=O)c2c(OC(C)=O)c(C)c(=O)oc2n1` (stereo not drawn), the GI50 in assay [1] was > 100 µM (inactive); in assay [2] it was > 100 µM (inactive); in [3], > 100 µM (inactive); in [4], > 100 µM (inactive); in assay [5], > 100 µM (inactive); in assay [6], over 100 µM. Besides, the GI50 in assay [7], in [8], in assay [9], in assay [10], in assay [20] and in assay [11] was > 100 µM (inactive) in each case. In addition, the GI50 in assay [12], in assay [13], in assay [14], in assay [15], in assay [17] and in assay [18] was > 100 µM (inactive) each time. For the same molecule, the GI50 in [19] is > 100 µM (inactive).
On to `Cc1nn(C)c2c1C(=O)N(C)CC(=O)N2C`, for which the GI50 is > 100 µM (inactive) in [1]; > 100 µM (inactive) in assay [2]; > 100 µM (inactive) in [3]; > 100 µM (inactive) in assay [4]; > 100 µM (inactive) in assay [5]; 69.7 µM in assay [6]. Also, the GI50 in [7], in assay [8], in assay [9], in assay [10], in assay [20] and in [11] was > 100 µM (inactive) each time. The GI50 in [12], in assay [13], in assay [15], in assay [16], in assay [17] and in assay [18] was > 100 µM (inactive) each time. Further, in assay [19], the GI50 was > 100 µM (inactive).
`CN(C)c1ccc(C2CC(=O)CC(c3ccc(N(C)C)cc3)C23C(=O)NC(=O)NC3=O)cc1` (stereo not drawn): the GI50 is > 25 µM (inactive) in assay [1]; 20.6 µM (inactive) in [2]; > 25 µM (inactive) in [3]; > 25 µM (inactive) in assay [4]; > 25 µM (inactive) in assay [5]; over 25 µM in assay [6]. The GI50 was > 25 µM (inactive) in assay [7]; 14.4 µM (inactive) in assay [8]; > 25 µM (inactive) in assay [9]; 8.73 µM (inactive) in assay [10]; > 25 µM (inactive) in assay [20]; > 25 µM (inactive) in [11]. In addition, the GI50 was 0.025 µM (active) in assay [12]; 19.5 µM (inactive) in [13]; > 25 µM (inactive) in [14]; > 25 µM (inactive) in assay [15]; 19.5 µM (inactive) in assay [16]; > 25 µM (inactive) in assay [18]. For the same molecule, the GI50 in assay [19] was 5.18 µM (inactive).
In the case of `O=C/C(=C1/C=Cc2cc([N+](=O)[O-])ccc2S1)c1ccccc1`, the GI50 in [1] was > 100 µM (inactive); in assay [2], > 100 µM (inactive); in assay [3], > 100 µM (inactive); in [4], > 100 µM (inactive); in assay [6] it was over 100 µM; in assay [7], > 100 µM (inactive). In addition, the GI50 in assay [9], in assay [10], in assay [20], in assay [11], in assay [12] and in assay [14] was > 100 µM (inactive) each time. For the same molecule, the GI50 in assay [15], in assay [16], in [17], in [18] and in [19] was > 100 µM (inactive) in each case.
Take `COc1ccc(C2c3cc4c(cc3OC(NCCO)C2C)OCO4)cc1` (stereo not drawn): the GI50 in assay [1] was 39.7 µM (inactive); in assay [2], 21.2 µM (inactive); in assay [3], 17.3 µM (inactive); in assay [4], 19.8 µM (inactive); in assay [5], 31.7 µM (inactive); in assay [6], 17.7 µM. Also, the GI50 in [7] was 20.5 µM (inactive); in assay [9], 22.1 µM (inactive); in assay [10], 18.7 µM (inactive); in [20], 17.8 µM (inactive); in assay [11], 20 µM (inactive); in assay [12] it was 22.5 µM (inactive). Also, the GI50 in assay [13] was 28.2 µM (inactive); in [14] it was 28.2 µM (inactive); in assay [15], 18.4 µM (inactive); in assay [16] it was 23.2 µM (inactive); in assay [17], 21.7 µM (inactive); in [18], 26.5 µM (inactive). The GI50 in [19] was 34.3 µM (inactive).
For the molecule `CCOC(=O)c1c[nH]c2cc3c(cc2c1=O)CCS3(=O)=O.CCOC(=O)c1c[nH]c2ccc3c(c2c1=O)S(=O)(=O)CC3`, the GI50 in assay [1] is > 100 µM (inactive); in assay [2], > 100 µM (inactive); in assay [3], > 100 µM (inactive); in assay [4], > 100 µM (inactive); in assay [5], > 100 µM (inactive); in assay [6] it was over 100 µM. Further, the GI50 in assay [7], in assay [8], in assay [9], in assay [10], in [20] and in [11] was > 100 µM (inactive) in each case. In addition, the GI50 is > 100 µM (inactive) in [12]; > 100 µM (inactive) in [13]; 62.4 µM (inactive) in assay [14]; > 100 µM (inactive) in [15]; > 100 µM (inactive) in assay [16]; > 100 µM (inactive) in [17]. Further, the GI50 in assay [18] and in assay [19] was > 100 µM (inactive) throughout.
As for `CCOC(=O)C(=Cn1c(=S)[nH]c2ccc([N+](=O)[O-])cc21)C(=O)OCC`, the GI50 in assay [1] was > 100 µM (inactive); in assay [2], > 100 µM (inactive); in assay [3] it was > 100 µM (inactive); in assay [4] it was > 100 µM (inactive); in assay [5] it was > 100 µM (inactive); in assay [7], 87.9 µM (inactive). For the same molecule, the GI50 in [8], in assay [9], in [10], in [20], in [11] and in assay [12] was > 100 µM (inactive) in each case. Further, the GI50 was > 100 µM (inactive) in assay [13]; 39.8 µM (inactive) in [14]; > 100 µM (inactive) in assay [15]; > 100 µM (inactive) in assay [16]; > 100 µM (inactive) in [17]; > 100 µM (inactive) in [18]. The GI50 in assay [19] is > 100 µM (inactive).
Regarding `O=C1C=C(Sc2ccccc2)c2nccc3c2c1nc1ccccc13`, the GI50 in assay [1] was 32.4 µM (inactive); in assay [2], 18.5 µM (inactive); in assay [3], 15.1 µM (inactive); in assay [5], 16.7 µM (inactive); in assay [6], 12.2 µM; in [7], 12.8 µM (inactive). Moreover, the GI50 in assay [8] is 18.1 µM (inactive); in [9], 28.1 µM (inactive); in assay [10], 12.2 µM (inactive); in assay [20], 3.35 µM (inactive); in assay [11] it was 11.2 µM (inactive); in assay [12] it was 0.0234 µM (active). The GI50 in assay [13] was 15.5 µM (inactive); in assay [14] it was 72.6 µM (inactive); in assay [15], 16.6 µM (inactive); in [16] it was 12.4 µM (inactive); in [17], 31.5 µM (inactive); in assay [18], 17.5 µM (inactive). For the same molecule, the GI50 in [19] is 17.9 µM (inactive).

The values are drawn from ChEMBL document CHEMBL1201862, “PubChem BioAssay data set” (2004).
